# “And” between values parts separate entries of the source, which are not always exact repeats. Identical values can stand only once. Like-named read-outs stand apart in the source and are kept apart here.
# Experiments:
# NCI 60 cancer cell lines = assay: NCI anticancer screening over a panel of 60 cancer cells, single concentration 10 µM; type: cell-based, human; conditions: Homo sapiens, read-out: % Growth Inhibition (GI %)
# How it was run: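 Primary single-dose screen at 10 µM over the NCI panel of 60 human tumour cell lines (leukemia, CNS, lung, colon, kidney, ovary, breast, prostate). The standard NCI Developmental Therapeutics Program protocol was used.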
# normal cell line WI-38 = assay: MTT cytotoxicity on normal cell line WI-38; conditions: listed as STA
# [1] = tested on: leukemia (MOLT-4) cell line; assay: MTT antiproliferative assay, MOLT-4; type: cell-based, human
# Protocol: (§1) After 24 h of culture incubation and supernatants discarded.
# [2] = tested on: lung cancer (HOP-92) cell line; assay: MTT antiproliferative assay, HOP-92; type: cell-based, human; conditions: for % viability: listed as STA
# Protocol: […]. […] See Appendix B.
# as §1
compound,measurement,setting,value
"C/C(=N\Nc1ccc(C(=O)O)cc1)c1cnn(-c2cc(=O)[nH]c3ccc(Br)cc23)c1C [Compound 4j, (E)-4-(2-(1-(1-(6-bromo-2-oxo-1,2-dihydroquinolin-4-yl)-5-methyl-1H-pyrazol-4-yl)ethylidene)hydrazineyl)benzoic acid]",inhibition at 10 µM,"NCI 60 cancer cell lines; 786-0, Renal cancer 786-0, 10 μM",< 5%
same,inhibition at 10 µM,"NCI 60 cancer cell lines; A498, Renal cancer A498, 10 μM",< 5%
same,inhibition at 10 µM,"NCI 60 cancer cell lines; A549, Non-small cell lung cancer A549/ATCC, 10 μM",< 5%
same,inhibition at 10 µM,"NCI 60 cancer cell lines; ACHN, Renal cancer ACHN, 10 μM",< 5%
same,inhibition at 10 µM,"NCI 60 cancer cell lines; BT-549, Breast cancer BT-549, 10 μM",< 5%
same,inhibition at 10 µM,"NCI 60 cancer cell lines; CAKI-1, Renal cancer CAKI-1, 10 μM",14.7%
same,inhibition at 10 µM,"NCI 60 cancer cell lines; CCRF-CEM, Leukemia CCRF-CEM, 10 μM",< 5%
same,inhibition at 10 µM,"NCI 60 cancer cell lines; COLO 205, Colon cancer COLO 205, 10 μM",< 5%
same,inhibition at 10 µM,"NCI 60 cancer cell lines; DU-145, Prostate cancer DU-145, 10 μM",< 5%
same,inhibition at 10 µM,"NCI 60 cancer cell lines; EKVX, Non-small cell lung cancer EKVX, 10 μM",6.05%
same,inhibition at 10 µM,"NCI 60 cancer cell lines; HCC 2998, Colon cancer HCC-2998, 10 μM",< 5%
same,inhibition at 10 µM,"NCI 60 cancer cell lines; HCT-15, Colon cancer HCT-15, 10 μM",< 5%
same,inhibition at 10 µM,"NCI 60 cancer cell lines; HCT-116, Colon cancer HCT-116, 10 μM",< 5%
same,inhibition at 10 µM,"NCI 60 cancer cell lines; HL-60, Leukemia HL-60(TB), 10 μM",7.02%
same,inhibition at 10 µM,"NCI 60 cancer cell lines; HOP-62, Non-small cell lung cancer HOP-62, 10 μM",5.55%
same,inhibition at 10 µM,"NCI 60 cancer cell lines; HOP-92, Non-small cell lung cancer HOP-92, 10 μM",< 5%
same,inhibition at 10 µM,"NCI 60 cancer cell lines; HT-29, Colon cancer HT29, 10 μM",< 5%
same,inhibition at 10 µM,"NCI 60 cancer cell lines; Hs-578T, Breast cancer HS 578T, 10 μM",11.7%
same,inhibition at 10 µM,"NCI 60 cancer cell lines; IGROV-1, Ovarian cancer IGROV1, 10 μM",< 5%
same,inhibition at 10 µM,"NCI 60 cancer cell lines; K562, Leukemia K-562, 10 μM",< 5%
same,inhibition at 10 µM,"NCI 60 cancer cell lines; KM12, Colon cancer KM12, 10 μM",< 5%
same,inhibition at 10 µM,"NCI 60 cancer cell lines; LOX IMVI, Melanoma LOX IMVI, 10 μM",< 5%
same,inhibition at 10 µM,"NCI 60 cancer cell lines; Leukemia SR, 10 μM",7.14%
same,inhibition at 10 µM,"NCI 60 cancer cell lines; MCF7, Breast cancer MCF7, 10 μM",< 5%
same,inhibition at 10 µM,"NCI 60 cancer cell lines; MDA-MB-231, Breast cancer MDA-MB-231/ATCC, 10 μM",17%
same,inhibition at 10 µM,"NCI 60 cancer cell lines; MDA-MB-435, Melanoma MDA-MB-435, 10 μM",< 5%
same,inhibition at 10 µM,"NCI 60 cancer cell lines; MDA-MB-468, Breast cancer MDA-MB-468, 10 μM",< 5%
same,inhibition at 10 µM,"NCI 60 cancer cell lines; MOLT-4, Leukemia MOLT-4, 10 μM",< 5%
same,inhibition at 10 µM,"NCI 60 cancer cell lines; Melanoma M14, 10 μM",< 5%
same,inhibition at 10 µM,"NCI 60 cancer cell lines; Melanoma MALM-3M, 10 μM",14.4%
same,inhibition at 10 µM,"NCI 60 cancer cell lines; NCI-H23, Non-small cell lung cancer NCI-H23, 10 μM",< 5%
same,inhibition at 10 µM,"NCI 60 cancer cell lines; NCI-H226, Non-small cell lung cancer NCI-H226, 10 μM",5.42%
same,inhibition at 10 µM,"NCI 60 cancer cell lines; NCI-H322M, Non-small cell lung cancer NCI-H322M, 10 μM",< 5%
same,inhibition at 10 µM,"NCI 60 cancer cell lines; NCI-H460, Non-small cell lung cancer NCI-H460, 10 μM",< 5%
same,inhibition at 10 µM,"NCI 60 cancer cell lines; NCI-H522, Non-small cell lung cancer NCI-H522, 10 μM",< 5%
same,inhibition at 10 µM,"NCI 60 cancer cell lines; NCI/ADR-RES, Ovarian cancer NCI/ADR-RES, 10 μM",< 5%
same,inhibition at 10 µM,"NCI 60 cancer cell lines; OVCAR-3, Ovarian cancer OVCAR-3, 10 μM",< 5%
same,inhibition at 10 µM,"NCI 60 cancer cell lines; OVCAR-4, Ovarian cancer OVCAR-4, 10 μM",< 5%
same,inhibition at 10 µM,"NCI 60 cancer cell lines; OVCAR-5, Ovarian cancer OVCAR-5, 10 μM",< 5%
same,inhibition at 10 µM,"NCI 60 cancer cell lines; OVCAR-8, Ovarian cancer OVCAR-8, 10 μM",< 5%
same,inhibition at 10 µM,"NCI 60 cancer cell lines; Prostate cancer PC-3, 10 μM",< 5%
same,inhibition at 10 µM,"NCI 60 cancer cell lines; RPMI-8226, Leukemia RPMI-8226, 10 μM",< 5%
same,inhibition at 10 µM,"NCI 60 cancer cell lines; RXF 393, Renal cancer RXF 393, 10 μM",< 5%
same,inhibition at 10 µM,"NCI 60 cancer cell lines; SF-268, CNS Cancer SF-268, 10 μM",< 5%
same,inhibition at 10 µM,"NCI 60 cancer cell lines; SF-295, CNS Cancer SF-295, 10 μM",< 5%
same,inhibition at 10 µM,"NCI 60 cancer cell lines; SF-539, CNS Cancer SF-539, 10 μM",7.41%
same,inhibition at 10 µM,"NCI 60 cancer cell lines; SK-MEL-2, Melanoma SK-MEL-2, 10 μM",< 5%
same,inhibition at 10 µM,"NCI 60 cancer cell lines; SK-MEL-5, Melanoma SK-MEL-5, 10 μM",< 5%
same,inhibition at 10 µM,"NCI 60 cancer cell lines; SK-MEL-28, Melanoma SK-MEL-28, 10 μM",< 5%
same,inhibition at 10 µM,"NCI 60 cancer cell lines; SK-OV-3, Ovarian cancer SK-OV-3, 10 μM",4.08%
same,inhibition at 10 µM,"NCI 60 cancer cell lines; SN12C, Renal cancer SN12C, 10 μM",< 5%
same,inhibition at 10 µM,"NCI 60 cancer cell lines; SNB-19, CNS Cancer SNB-19, 10 μM",< 5%
same,inhibition at 10 µM,"NCI 60 cancer cell lines; SNB-75, CNS Cancer SNB-75, 10 μM",17.2%
same,inhibition at 10 µM,"NCI 60 cancer cell lines; SW-620, Colon cancer SW-620, 10 μM",< 5%
same,inhibition at 10 µM,"NCI 60 cancer cell lines; T47D, Breast cancer T-47D, 10 μM",7.76%
same,inhibition at 10 µM,"NCI 60 cancer cell lines; TK-10, Renal cancer TK-10, 10 μM",< 5%
same,inhibition at 10 µM,"NCI 60 cancer cell lines; U-251, CNS Cancer U251, 10 μM",< 5%
same,inhibition at 10 µM,"NCI 60 cancer cell lines; UACC-62, Melanoma UACC-62, 10 μM",6.6%
same,inhibition at 10 µM,"NCI 60 cancer cell lines; UACC-257, Melanoma UACC-257, 10 μM",< 5%
same,inhibition at 10 µM,"NCI 60 cancer cell lines; UO-31, Renal cancer UO-31, 10 μM",39.3%
"CN[C@@H]1C[C@H]2O[C@@](C)([C@@H]1OC)n1c3ccccc3c3c4c(c5c6ccccc6n2c5c31)C(=O)NC4 [Staurosporine, reference compound]",% viability,"normal cell line WI-38; WI38, 1.6uM (log conc. 0.19), 1.6 µM",68.1%
same,% viability,"normal cell line WI-38; WI38, 100uM (log conc. 2), 100 µM",37.43%
same,% viability,"[1]; MOLT-4, 0.4ug (log conc. -0.41), listed as STA",72.582% and 72.58%
same,% viability,"[1]; MOLT-4, 1.6ug (log conc. 0.193), listed as STA",62.059% and 62.06%
same,% viability,"[1]; MOLT-4, 6.3ug (log conc. 0.796)",51.82%
same,% viability,"[1]; MOLT-4, 25ug (log conc. 1.398)",36.23%
same,% viability,"[1]; MOLT-4, 100ug (log conc. 2)",24.46%
same,% viability,"[2]; HOP-92, MTT, 0.4uM",69.37%
same,% viability,"[2]; HOP-92, MTT, 1.6uM",61.2%
same,% viability,"[2]; HOP-92, MTT, 6.3uM",43.16%
same,% viability,"[2]; HOP-92, MTT, 100uM",17.16%
same,viability at 0.4 µM,"[2]; Homo sapiens, HOP-92, HOP-92, MTT, 0.4uM",69.4%
same,viability at 1.6 µM,"[2]; Homo sapiens, HOP-92, HOP-92, MTT, 1.6uM",61.2%
same,viability at 6.3 µM,"[2]; Homo sapiens, HOP-92, HOP-92, MTT, 6.3uM",43.2%
same,viability at 25 µM,"[2]; Homo sapiens, HOP-92, HOP-92, MTT, 25uM",24.7%
same,viability at 100 µM,"[2]; Homo sapiens, HOP-92, HOP-92, MTT, 100uM",17.2%
same,IC50,"[2]; Homo sapiens, HOP-92, MTT, read-out: Antiproliferative activity IC50 ± SEM, HOP-92",3.17 ± 0.19 µM
same,IC50,"[2]; Homo sapiens, HOP-92, concentration used in RT-PCR, read-out: IC50",3.17 µM
